Reference: ChEMBL document CHEMBL1201862, “PubChem BioAssay data set” (2004)
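Compound exposure: 48 hours, 5 concentrations, 96-well plates. GI50 marks 50% less growth.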 Calls of active or inactive are those of the source. Cut-off read from the data, not from the text of the source: active = GI50 up to about 1.1 µM and inactive = higher. Where a SMILES comes first, the peptide text is derived from it. [ ]: non-standard residue; d: D form. The star is where a group is joined. ξ: configuration not given here. NMeF = CN[C@@H](Cc1ccccc1)C(=O)O; NMeV = CN[C@H](C(=O)O)C(C)C; ξNMeN = CNC(CC(N)=O)C(=O)O; NMeA = CN[C@@H](C)C(=O)O; ξNMeV = CNC(C(=O)O)C(C)C; Boc = CC(C)(C)OC(=O)*

Tests used:
Experiment in all cases: NCI-60 cell line screen, 48 h
OVCAR-8 = test system: OVCAR-8
RXF 393 = test system: RXF 393
SN12C = test system: SN12C
U-251 = test system: U-251
HT-29 = test system: HT-29
UO-31 = test system: UO-31
CCRF-CEM = test system: CCRF-CEM
Malme-3M = test system: Malme-3M
OVCAR-5 = test system: OVCAR-5
K562 = test system: K562
SR = test system: SR
UACC-62 = test system: UACC-62
HL-60 = test system: HL-60
TK-10 = test system: TK-10
MOLT-4 = test system: MOLT-4
M14 = test system: M14
CAKI-1 = test system: CAKI-1
SW-620 = test system: SW-620
SNB-19 = test system: SNB-19

Measured: GI50

Oc1cc(-c2ccccc2)c2ccccc2n1
inactive: OVCAR-8 > 100 µM | RXF 393 36.2 µM | SN12C 30.9 µM | U-251 69.5 µM | HT-29 > 100 µM | UO-31 15.1 µM | CCRF-CEM 60.8 µM | Malme-3M 24.9 µM | OVCAR-5 64.4 µM | K562 65.5 µM | SR 45.5 µM | UACC-62 48.3 µM | HL-60 88.1 µM | TK-10 38.6 µM | MOLT-4 37.8 µM | M14 41.8 µM | CAKI-1 13.4 µM | SW-620 > 100 µM

[N-]=[N+]=Nc1ccc(CCN2CCN(c3cccc(C(F)(F)F)c3)CC2)cc1I
inactive: OVCAR-8 > 100 µM | RXF 393 33.1 µM | SN12C 49 µM | U-251 > 100 µM | SNB-19 > 100 µM | HT-29 29.4 µM | UO-31 21.1 µM | CCRF-CEM 54.1 µM | Malme-3M > 100 µM | OVCAR-5 34 µM | K562 52.6 µM | SR 35.1 µM | UACC-62 > 100 µM | HL-60 12.8 µM | TK-10 > 100 µM | MOLT-4 40.4 µM | M14 > 100 µM | CAKI-1 40.1 µM | SW-620 70.3 µM

CCOC(=O)NN(C(=O)OCC)C(C(=O)c1ccc(Cl)cc1)=C1NCCN1
inactive: OVCAR-8 > 100 µM | RXF 393 > 100 µM | SN12C > 100 µM | U-251 > 100 µM | SNB-19 > 100 µM | HT-29 > 100 µM | UO-31 > 100 µM | CCRF-CEM > 100 µM | Malme-3M > 100 µM | OVCAR-5 > 100 µM | K562 > 100 µM | SR > 100 µM | UACC-62 > 100 µM | HL-60 > 100 µM | TK-10 > 100 µM | MOLT-4 > 100 µM | M14 > 100 µM | CAKI-1 > 100 µM | SW-620 > 100 µM

CCOC(=O)NC(=O)c1cn(-c2ccc(CCOC(=O)NCCCCCCNC(=O)OCCc3ccc(-n4c(=O)[nH]cc(C(=O)NC(=O)OCC)c4=O)cc3)cc2)c(=O)[nH]c1=O
inactive: OVCAR-8 40.6 µM | RXF 393 > 100 µM | SN12C > 100 µM | U-251 33.2 µM | SNB-19 23.2 µM | HT-29 > 100 µM | UO-31 > 65.8 µM | CCRF-CEM 32.6 µM | Malme-3M 50 µM | OVCAR-5 > 100 µM | K562 > 100 µM | SR > 62.8 µM | UACC-62 24.1 µM | HL-60 > 100 µM | TK-10 58.3 µM | MOLT-4 58.1 µM | M14 > 100 µM | CAKI-1 > 100 µM | SW-620 > 100 µM

N#CC(NNC(=O)Cc1ccccc1)c1ccc(O)cc1 (stereo not given)
inactive: OVCAR-8 > 100 µM | RXF 393 > 100 µM | SN12C > 100 µM | U-251 > 100 µM | HT-29 > 100 µM | UO-31 > 100 µM | CCRF-CEM > 100 µM | Malme-3M > 100 µM | OVCAR-5 > 100 µM | K562 > 100 µM | SR > 100 µM | UACC-62 > 100 µM | HL-60 > 100 µM | TK-10 > 100 µM | MOLT-4 > 100 µM | M14 > 100 µM | CAKI-1 > 100 µM | SW-620 > 100 µM

COc1ccc2c(c1)c1c3n2CCNN=C3CCC1
inactive: OVCAR-8 > 81.1 µM | SN12C > 61.7 µM | U-251 > 48.5 µM | SNB-19 > 100 µM | HT-29 > 100 µM | UO-31 > 43.7 µM | CCRF-CEM 56.1 µM | Malme-3M > 100 µM | OVCAR-5 > 57.4 µM | K562 > 81.1 µM | SR 10.4 µM | UACC-62 60.4 µM | HL-60 5.66 µM | TK-10 > 53 µM | MOLT-4 > 37.5 µM | M14 > 100 µM | CAKI-1 24.8 µM | SW-620 > 100 µM

O=C(O)c1ccc(S(=O)(=O)c2ccccc2)c([N+](=O)[O-])c1
inactive: RXF 393 > 100 µM | SN12C > 100 µM | U-251 > 100 µM | SNB-19 > 100 µM | HT-29 > 100 µM | UO-31 > 100 µM | CCRF-CEM > 100 µM | Malme-3M > 100 µM | OVCAR-5 > 100 µM | K562 > 100 µM | SR > 100 µM | UACC-62 > 100 µM | HL-60 > 100 µM | TK-10 > 100 µM | MOLT-4 > 100 µM | M14 > 100 µM | CAKI-1 > 100 µM | SW-620 > 100 µM

CCOC(=O)C1=C(Nc2ccc(Br)cc2)OC/C1=N\NC(=O)c1ccccc1O
inactive: OVCAR-8 13.1 µM | RXF 393 1.29 µM | SN12C 52.4 µM | U-251 9.23 µM | SNB-19 10.9 µM | HT-29 40.4 µM | UO-31 9.71 µM | CCRF-CEM 9.66 µM | Malme-3M 35.4 µM | OVCAR-5 46.1 µM | K562 7.06 µM | SR 9.06 µM | UACC-62 2.67 µM | HL-60 20.4 µM | TK-10 > 34.8 µM | MOLT-4 11.4 µM | M14 23.5 µM | CAKI-1 6.49 µM | SW-620 23 µM

O=C(NC1C=Nc2ccccc2NC1=O)c1ccccc1Cl (stereo not given)
inactive: OVCAR-8 43 µM | RXF 393 13 µM | SN12C 64.4 µM | U-251 28.8 µM | SNB-19 > 100 µM | HT-29 55.7 µM | UO-31 24.9 µM | CCRF-CEM 14 µM | Malme-3M 58.1 µM | OVCAR-5 > 100 µM | K562 11.1 µM | SR 31.8 µM | UACC-62 33.6 µM | HL-60 13.5 µM | TK-10 46.2 µM | MOLT-4 12.6 µM | M14 80.5 µM | CAKI-1 46.8 µM | SW-620 13.6 µM

C[Si](C)(C)C(CCCCSc1ccccc1)(Sc1ccccc1)Sc1ccccc1
inactive: OVCAR-8 > 100 µM | RXF 393 > 100 µM | SN12C > 100 µM | U-251 85.5 µM | SNB-19 > 100 µM | UO-31 > 100 µM | CCRF-CEM > 100 µM | K562 > 100 µM | SR > 100 µM | UACC-62 36.1 µM | HL-60 > 100 µM | TK-10 > 100 µM | MOLT-4 > 100 µM | CAKI-1 > 100 µM | SW-620 > 100 µM

COC(=O)C1C=CCC2CCCCC21N1CCCC1 (stereo not given)
inactive: OVCAR-8 59.4 µM | RXF 393 > 100 µM | SN12C 78.5 µM | U-251 40.4 µM | SNB-19 82.2 µM | HT-29 48.1 µM | UO-31 > 100 µM | CCRF-CEM 53.1 µM | Malme-3M > 100 µM | OVCAR-5 > 100 µM | SR 76.7 µM | UACC-62 > 100 µM | HL-60 19.7 µM | TK-10 > 100 µM | MOLT-4 64.4 µM | M14 > 100 µM | CAKI-1 > 100 µM | SW-620 83.6 µM

O=c1cnn2c(n1)sc1ccc3ccccc3c12
inactive: OVCAR-8 > 100 µM | RXF 393 > 100 µM | SN12C > 100 µM | U-251 > 100 µM | SNB-19 > 100 µM | HT-29 > 100 µM | UO-31 > 100 µM | CCRF-CEM 63.5 µM | Malme-3M > 100 µM | OVCAR-5 > 100 µM | K562 > 100 µM | SR 59.4 µM | UACC-62 > 100 µM | HL-60 83.9 µM | TK-10 > 100 µM | MOLT-4 30.1 µM | M14 > 100 µM | CAKI-1 > 100 µM | SW-620 > 100 µM

CC(C)NC(C)Cc1ccccc1 (stereo not given)
inactive: OVCAR-8 > 100 µM | RXF 393 > 100 µM | SN12C > 100 µM | U-251 > 100 µM | SNB-19 > 100 µM | HT-29 > 100 µM | UO-31 > 100 µM | CCRF-CEM > 100 µM | Malme-3M > 100 µM | OVCAR-5 > 100 µM | K562 > 100 µM | SR > 100 µM | UACC-62 > 100 µM | HL-60 > 100 µM | TK-10 > 100 µM | M14 > 100 µM | CAKI-1 > 100 µM | SW-620 > 100 µM

CCC(=O)N/N=C(\C=C\c1cccc(O)c1)c1sc(Nc2ccc(C)cc2[N+](=O)[O-])nc1C
inactive: OVCAR-8 71.3 µM | RXF 393 10.8 µM | SN12C > 100 µM | U-251 > 100 µM | SNB-19 > 100 µM | HT-29 18.6 µM | UO-31 > 100 µM | CCRF-CEM 99.1 µM | Malme-3M > 100 µM | OVCAR-5 > 100 µM | K562 > 100 µM | SR 73.8 µM | UACC-62 > 100 µM | HL-60 43.4 µM | TK-10 > 100 µM | MOLT-4 > 100 µM | M14 > 100 µM | CAKI-1 > 100 µM | SW-620 > 100 µM

COC(=O)[C@H](C)N(C)C(=O)C(CC(N)=O)N(C)C(=O)[C@H](Cc1ccccc1)N(C)C(=O)[C@@H]1CCCN1C(=O)[C@H](C(C)C)N(C)C(=O)C(C(C)C)N(C)C(=O)[C@@H](NC(=O)OC(C)(C)C)C(C)C (stereo not given in full) (Boc-V[ξNMeV][NMeV]P[NMeF][ξNMeN][NMeA]-OMe)
inactive: OVCAR-8 48.6 µM | RXF 393 37.6 µM | SN12C > 50 µM | U-251 > 50 µM | SNB-19 > 50 µM | HT-29 > 50 µM | UO-31 > 50 µM | CCRF-CEM 13.6 µM | Malme-3M > 75 µM | OVCAR-5 > 50 µM | K562 > 50 µM | SR 21.3 µM | UACC-62 > 50 µM | HL-60 12.1 µM | TK-10 > 50 µM | MOLT-4 24.5 µM | M14 > 50 µM | CAKI-1 > 50 µM | SW-620 > 50 µM
